Like-named read-outs stand apart in the source and are kept apart here.
Tests used:
[1] = Solubility of DIMPTS in cyanoacrylate monomer; format: physicochemical
Source text: Diiodomethyl-p-tolylsulfone (DIMPTS) is soluble in cyanoacrylate monomer at least up to 15,000 ppm (wt./wt.). Accordingly, formulations may herein have a concentration of diiodomethyl-p-tolylsulfone ranging from about 500 (0.05%) to about 10,000 ppm (1.00%), preferably from about 700 (0.07%) to about 7,000 ppm (0.70%), more preferably the concentration of diiodomethyl-p-tolylsulfone is about 2800 ppm (0.28%).

[2] = tested on: Staphylococcus epidermidis 51625; experiment: MIC/MBC of pure DIMPTS, tube dilution procedure; format: cell-based; conditions: preliminary evaluation
Description: (§1) Minimum inhibitory concentration is the lowest concentration that prevents the development of visible growth after a period of incubation. Minimum bactericidal concentration is the lowest concentration that achieves a 1000 fold or greater reduction in the original bacterial inoculum. The minimum inhibitory concentration (MIC) and minimum bactericidal concentration (MBC) is evaluated using tube dilution procedure.
(§2) The effectiveness of the antimicrobial property of pure DIMPTS is described in terms of minimum inhibitory concentration (MIC) and minimum bactericidal concentration (MBC) in Table II (A).

Escherichia coli 8739 = experiment: MIC/MBC of pure DIMPTS, tube dilution procedure; format: cell-based; conditions: preliminary evaluation
Description: as §1, §2

[3] = tested on: Staphylococcus aureus 6538; experiment: MIC/MBC of pure DIMPTS, tube dilution procedure; format: cell-based; conditions: preliminary evaluation
Description: as §1, §2

Bacillus subtilis 902173 = experiment: MIC/MBC of pure DIMPTS, tube dilution procedure; format: cell-based; conditions: preliminary evaluation
Description: as §1, §2

Candida albicans 10231 = experiment: MIC/MBC of pure DIMPTS, tube dilution procedure; format: cell-based
Description: as §1, §2

[4] = tested on: Pseudomonas aeruginosa 9027; experiment: MIC/MBC of pure DIMPTS, tube dilution procedure; format: cell-based; conditions: preliminary evaluation
Description: as §1, §2

[5] = tested on: Streptococcus agalactiae 624; experiment: MIC/MBC of pure DIMPTS, tube dilution procedure; format: cell-based; conditions: preliminary evaluation
Description: as §1, §2

[6] = tested on: Enterococcus faecium 700221; experiment: MIC/MBC of pure DIMPTS, tube dilution procedure; format: cell-based; conditions: preliminary evaluation
Description: as §1, with “procedure. The effectiveness of the antimicrobial property of pure […] is described in terms of minimum inhibitory concentration (MIC) and minimum bactericidal concentration (MBC) in Table II (A).” for “procedure.”

[7] = tested on: Staphylococcus aureus 33591; experiment: MIC/MBC of pure DIMPTS, tube dilution procedure; format: cell-based; conditions: preliminary evaluation
Description: as §1, with “procedure. The effectiveness of the antimicrobial property of pure […] is described in terms of minimum inhibitory concentration (MIC) and minimum bactericidal concentration (MBC) in Table II (A).” for “procedure.”

[8] = aqueous; cited from earlier work

soluble in cyanoacrylate monomer [1] | MIC [2] [µg/mL] | MIC (Escherichia coli 8739) [µg/mL] | MIC [3] [µg/mL] | MIC (Bacillus subtilis 902173) [µg/mL] | MIC (Candida albicans 10231; Candida albicans 10231, preliminary evaluation, read-out: MIC) [µg/mL] | MIC (Candida albicans 10231; Candida albicans, 10231, statement in description, strain not given, read-out: minimum inhibitory concentration against C. albicans) [µg/mL] | MIC [4] [µg/mL] | MIC [5] [µg/mL] | MIC [6] [µg/mL] | MIC [7] [µg/mL] | SMILES | MBC [2] [µg/mL] | MBC (Escherichia coli 8739) [µg/mL] | MBC [3] [µg/mL] | MBC (Bacillus subtilis 902173) [µg/mL] | MBC (Candida albicans 10231; Candida albicans 10231, preliminary evaluation) [µg/mL] | MBC [5] [µg/mL] | MBC [7] [µg/mL] | pKa [8]
≥ 15,000 ppm (wt./wt.) | 25 | 100 | 100 | 50 | 5 | ~5 | > 100 | 50 | 50 | 12.5 | Cc1ccc(S(=O)(=O)C(I)I)cc1 [DIMPTS, diiodomethyl-p-tolylsulfone] | < 100 | < 250 | < 250 | 50 to 100 | 10 to 100 | 125 to 250 | < 250 | –
– | – | – | – | – | – | – | – | – | – | – | [O-][Cl+3]([O-])([O-])O [perchloric acid] | – | – | – | – | – | – | – | −5.0

— US8337881B2, “Cyanoacrylate monomer formulation containing diiodomethyl-p-tolylsulfone” (Ethicon, Inc., priority 2003, dated 2012)
